Results: patent publication US12410141B2, “Anti-cancer spirocyclic-guanidine compounds and uses thereof” (The Johns Hopkins University, priority 2020, dated 2025)

Key:
[1] = Plasma stability, mouse EDTA plasma; type: in vitro ADME; conditions: 37° C.
Experimental: (§1) Human and mouse liver microsomes and NADPH regenerating system solutions were purchased from Corning Life Sciences (Tewsbury, MA). Human and mouse K2EDTA was purchased from BioIVT (Westbury, NY). Metabolic studies in liver microsomes (0.125 mg/mL) were conducted in 1× phosphate buffered saline (pH 7.4), NADPH-generating system, and 10 μM of RA475 in a final volume of 250 μl. An incubation mixture with and without NADPH-generating system as well as a neat solution without microsomes and NADPH-generating system were prepared. RA475 was added at the same concentration level into human and mouse EDTA plasma. All reactions were initiated with the addition of RA475. Incubations were performed in glass tubes maintained at 37° C. in a shaker bath. At 0, 30, and 60 minutes, 10 μL aliquots were sampled from the reaction mixture and 0.5 mL of acetonitrile containing internal standard (Up284) was added to each samples. Samples were vortex-mixed and underwent centrifugation for 5 min at 1430×g. A 10 μL aliquot of the supernatant was injected onto the LC-MS instrument for qualitative analysis using a temperature-controlled autosampling device operating at 5° C. Chromatographic analysis was performed using a Waters Acquity™ Ultra Performance LC. […] The mobile phase used for the chromatographic separation was composed of water (mobile phase A) and acetonitrile (mobile phase B) containing 0.1% (v/v) formic acid with a flow rate of 0.3 mL/min. The initial mobile phase composition was 80% mobile phase A and 20% mobile phase B. From 0.5 to 1 min, mobile phase B was increased linearly from 20% to 100%. From 1 to 3 min, mobile phase B was maintained at 100%. From 3.0 to 3.1 min, the gradient decreased to 20% mobile phase B and the conditions were maintained until 4.1 min to re-equilibrate the column for the next injection. The column effluent was monitored using an AB Sciex 5500 triple quadrupole mass spectrometer. The instrument was equipped with an electrospray interface, operated in a positive mode and controlled by the Analyst v1.6 software. For the stability study, the mass spectrometer was programmed to monitor the following MRM transition 408.2→366.1 for RA475 and 366.2→155.8 for UP284 (internal standard). Results were assessed qualitatively comparing the average area ratio of RA475 at 0 hr to area ratio at 30 and 60 minutes for both mouse and human liver microsomes. RA475 was not analyzed for metabolites due to the concentration of RA475 not decreasing.

PEA2 = assay: MTT cytotoxicity assay, PEA2; type: cell-based; conditions: PEA2, ovarian, 72 hr, read-out: IC50, cell killing
Experimental: (§2) All cell lines were obtained from the American Type Culture Collection (ATCC) and cultured in the specified medium supplemented with 10% fetal bovine serum, 100 IU/mL penicillin, and 100 μg/mL streptomycin at 37° C. in a humidified 5% CO2/95% air incubator. To assess drug cytotoxicity cells were seeded at 2,500 cells/well (10,000 cells/well for MM lines and primary cells) in 100 μL medium in 96-well plate. […]
(§3) It was examined whether the RPN13 inhibitor, RA475, was cytotoxic for cancer cell lines using the MTT assay.

[2] = Microsomal stability, human liver microsomes; type: in vitro ADME; conditions: for % Drug Remaining: Human Liver Microsomes
Experimental: as §1

PEA1 = assay: MTT cytotoxicity assay, PEA1; type: cell-based; conditions: PEA1, ovarian, 72 hr, read-out: IC50, cell killing
Experimental: as §2, §3

[3] = Plasma stability, human EDTA plasma; type: in vitro ADME; conditions: 37° C.
Experimental: as §1

BT549 = assay: MTT cytotoxicity assay, BT549; type: cell-based; conditions: BT549, breast, 72 hr, read-out: IC50, cell killing
Experimental: as §2, §3

CD-1 mice = assay: Single-dose tolerability in CD-1 mice; type: in vivo, mouse
Experimental: All animal procedures were performed according to protocols approved by the Johns Hopkins University Animal Care and Use Committee, and in accordance with the AAALAC recommendations for the proper use and care of laboratory animals (protocol MO15M375, renewed as MO18M129). Four to six week old female CD-1 mice were purchased from Jackson Laboratories (ME, USA). Isoflurane anesthesia was used during imaging. The health conditions and/or criteria under which early euthanasia or withdrawal of an animal from the study was implemented included, but are not limited to, general signs of distress such as hunched posture, lethargy, anorexia, dehydration, rough hair coat and/or those that are directly related to the experimental procedures e.g. loss of weight >10%, lethargy, restricted movement of limbs, distended abdomen. Animals in distress were euthanized by carbon dioxide asphyxiation, and cervical dislocation was used to ensure death. This is an acceptable form of euthanasia for mice and in compliance with the recommendations of the Panel on Euthanasia of the American Veterinary Medical Association.
RA475 powder was directly dissolved in 25% β-hydroxy propyl cyclodextrin as a clear solution and administered at increasing single doses to CD-1 mice (n=3) via intraperitoneal injection.

[4] = Microsomal stability, mouse liver microsomes; type: in vitro ADME
Experimental: as §1

[5] = system: ES2 cells stably expressing 4UbFL; assay: In vitro 4UbFL assay, ES2 cells; type: cell-based; conditions: ES2-4UbFL cells, two-fold dilution series, 4 hr
Experimental: Sub-confluent cultures of ES2 cells stably expressing 4UbFL were seeded at 10,000 cells/well in 96-well microtiter plates. At 18 hr post transfection, cells were treated with compounds or vehicle (DMSO) at the doses indicated. After a 4 hr incubation, the cells were lysed and the luciferase activity in each cell lysate was determined with a luciferase assay kit (Promega) according to the manufacturer's instructions. Bioluminescence was measured by using a luminometer (Glomax Multidetection system, Promega).
To measure RA475 on-target activity in live cells, the inventors used an expression vector for the reporter gene 4UbFL in which the gene for firefly luciferase (FL) is inserted in-frame 3′ to four copies of ubiquitin (PMID: 12819780). […] Proteasome inhibition stabilizes 4UbFL and thus increases the bioluminescence signal upon addition of luciferin substrate, and this can be measured by a luminometer (for cells) or visualized by IVIS imaging (for mice).
ES2 cells stably transfected with 4UbFL expression plasmid (ES2-4UbFL) were plated in a 96 well microtiter plate and 18 hr later treated with DMSO only as a negative control, or two-fold dilution series of either Up284 or RA475. After 4 hr medium was removed and the cells were lysed using luciferase lysis buffer and bioluminescence was measured using a luminometer after the addition of luciferin substrate.

| SMILES | % Drug Remaining ([1]; 0 minutes) [%] | % Drug Remaining ([1]; 30 minutes) [%] | % Drug Remaining ([1]; 60 minutes) [%] | % Drug Remaining ([2]; NADPH Neg, 0 minutes) [%] | % Drug Remaining ([2]; NADPH Neg, 30 minutes) [%] | % Drug Remaining ([2]; NADPH Neg, 60 minutes) [%] | % Drug Remaining ([2]; NADPH Pos, 0 minutes) [%] | % Drug Remaining ([2]; NADPH Pos, 30 minutes) [%] | % Drug Remaining ([2]; NADPH Pos, 60 minutes) [%] | % Drug Remaining ([3]; 0 minutes) [%] | % Drug Remaining ([3]; 30 minutes) [%] | % Drug Remaining ([3]; 60 minutes) [%] | % Drug Remaining ([4]; NADPH Neg, 0 minutes) [%] | % Drug Remaining ([4]; NADPH Neg, 30 minutes) [%] | % Drug Remaining ([4]; NADPH Neg, 60 minutes) [%] | % Drug Remaining ([4]; NADPH Pos, 0 minutes) [%] | % Drug Remaining ([4]; NADPH Pos, 30 minutes) [%] | % Drug Remaining ([4]; NADPH Pos, 60 minutes) [%] | bioluminescent signal of 4UbFL reporter [5] | further results |
| --- | --- | --- | --- | --- | --- | --- | --- | --- | --- | --- | --- | --- | --- | --- | --- | --- | --- | --- | --- | --- |
| Cl.Cl.N#Cc1ccc(/C=C2/C(=O)/C(=C/c3ccc(C#N)cc3)C23CCN(C(=N)N)CC3)cc1 [RA475] | 100 | 109 | 109 | 100 | 99 | 93 | 100 | 112 | 102 | 100 | 108 | 107 | 100 | 90 | 108 | 100 | 93 | 98 | significantly increased | IC50 (PEA2): 356 nM; maximal decrease of area ratio ([2]; human liver microsomes lacking NADPH regeneration solution): 7%; IC50 (PEA1): 406 nM; IC50 (BT549): 229 nM; NOAEL (CD-1 mice; single dose, intraperitoneal, 80 mg/Kg highest dose level tested): > 80 mg/kg; adverse events (CD-1 mice; single i.p. doses at or below 80 mg/Kg): No evidence of adverse events, including weight loss |
| N#Cc1ccc(/C=C2/C(=O)/C(=C/c3ccc(C#N)cc3)C23CCNCC3)cc1 [Up284, reference compound] | 100 | 84 | 94 | 100 | 57 | 52 | 100 | 43 | 43 | 100 | 100 | 90 | 100 | 60 | 51 | 100 | 45 | 38 | significantly increased | – |
